One assay concerns the target ROS1 (Homo sapiens (Human), UniProt P08922). The assay can be described thus: Biochemical kinase assay, ROS1-wt. To be noted: apparent inhibitory constant, kinase domain, Morrison equation; read-out: ROS1-wt Ki^app. How it is done: (§1) First, 250 nL of compound dissolved in DMSO (100-fold of the desired concentration) was dispensed into a 384-well plate. A 12.5 μL substrate solution containing ATP (2 mM) and fluorogenic phosphorylation substrate AQT0101 ([…] for ALK and ROS, AssayQuant) or AQT0104 (26 μM for TRKB, AssayQuant) in buffer (50 mM HEPES pH 7.5, […], 0.5 mM EGTA, 10 mM MgCl2) was added and mixed thoroughly. Then, a 12.5 μL kinase solution containing ALK (1.5 nM, Carna, 08-518), ALK I1171N/D1203N (4 nM, SignalChem, custom-made), ROS1 (0.6 nM, Carma, 08-163), ROS1-G2032R (0.5 nM, SignalChem, R14-121BG), or TRKB-wt (1.5 nM, SignalChem, N17-11G) kinase domains in buffer ([…] pH 7.5, 0.01% Brij-[…], 0.4 mg/mL BSA, 0.5 mM EGTA, and 10 mM MgCl2) was added and mixed thoroughly. The plate was sealed and read by SpectraMax Paradigm at λ=485 nm every 2 minutes for 120 minutes at 30° C. Initial rates of reaction (v) were calculated from the change in fluorescence intensity over time during the initial, linear portion of the reaction. Finally, apparent inhibitory constants (Ki^app) were determined from regression of v and I (inhibitor concentration) to Morrison Equation (E=enzyme concentration): […]
(§2) Compound potency can be interpreted by binning Ki^app values against the targets: bin A for high potency, Ki^app<50 nM; bin B for medium potency, 50 nM≤Ki^app<500 nM; and bin C for low potency, Ki^app≥500 nM. […] “nd” means not determined.

For a further assay, the target named is Ba/F3 ETV6-TRKB (Homo sapiens, UniProt Q16620). Description: Ba/F3 cell proliferation assay, ETV6-TRKB. It is filed as cell-based. In short, it runs like this: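 Growth inhibition after 72 h compound exposure (3-fold series) was measured by CellTiter-Glo in IL-3-independent Ba/F3 cells stably expressing ETV6-TRKB. A four-parameter logistic fit of percent inhibition versus concentration gave IC50.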

For another assay, the target named is ROS1-G2032R (Homo sapiens (Human), UniProt P08922, G2032R). Description: Biochemical kinase assay, ROS1-G2032R. To be noted: apparent inhibitory constant, kinase domain, Morrison equation; read-out: ROS1-G2032R Ki^app. On the procedure: as §1, §2
Assay [1] deals with Ba/F3 EML4-ALK v1 I1171N/D1203N (Homo sapiens (Human), UniProt Q9HC35+Q9UM73, D1203N/I1171N). Description: Ba/F3 cell proliferation assay, EML4-ALK v1 I1171N/D1203N. It is filed as cell-based. The settings on record: for IC50: Ba/F3 stable cells, 72 hours, CellTiter-Glo. Put shortly:
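Viability read by CellTiter-Glo luminescence after 72 h exposure to a 3-fold compound dilution series, with IC50 from four-parameter logistic regression. Cells were Ba/F3 rendered IL-3-independent through retroviral expression of EML4-ALK v1 I1171N/D1203N, puromycin-selected.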
For orientation: Cellular ATP, detected with luciferase, serves as a proxy for viable cell number.

A further assay addresses Ba/F3 EML4-ALK v1 I1171N (Homo sapiens (Human), UniProt Q9HC35+Q9UM73, I1171N). Description: Ba/F3 cell proliferation assay, EML4-ALK v1 I1171N. It is filed as cell-based. The settings on record: for IC50: Ba/F3 stable cells, 72 hours, CellTiter-Glo; for ETV6-TRKB / EML4-ALK v1 I1171N: TRKB selectivity, ratio of Ba/F3 IC50 values. In short, it runs like this: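 Ba/F3 cells stably transformed with retroviral EML4-ALK v1 I1171N, selected by IL-3 withdrawal and puromycin, grown IL-3-free. Compounds added as 3-fold dilution series, 72 h incubation; viability by CellTiter-Glo luminescence. IC50 from percent inhibition by four-parameter logistic fit, binned A/B/C.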

The target in a further assay is TRKB-wt (Homo sapiens (Human), UniProt Q16620). Description: Biochemical kinase assay, TRKB-wt. The settings on record: apparent inhibitory constant, kinase domain, Morrison equation; read-out: TRKB-wt Ki^app. In short, it runs like this:
(§3)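 Kinase domains (in enzyme solution: ALK I1171N/D1203N 4 nM, ROS1 0.6 nM, ROS1-G2032R 0.5 nM, TRKB 1.5 nM) were mixed with substrate solution holding 2 mM ATP and 26 μM AQT0101 (ALK, ROS1) or AQT0104 (TRKB). Initial rates from 120-min fluorescence kinetics at 30 °C were fitted to the Morrison equation (Ki^app).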

For a further assay, the target named is ALK I1171N/D1203N (Homo sapiens (Human), UniProt Q9UM73, D1203N/I1171N). The assay can be described thus: Biochemical kinase assay, ALK I1171N/D1203N. To be noted: apparent inhibitory constant, kinase domain, Morrison equation; read-out: ALK-I1171N-D1203N Ki^app. In short, it runs like this:
as §3

The mark [2] stands for this setting: Ba/F3 stable cells, 72 hours, CellTiter-Glo; read-out: ETV6-TRKB IC50.
[3] abbreviates: TRKB selectivity, ratio of Ba/F3 IC50 values.

Like-named read-outs stand apart in the source and are kept apart here.

Chain of ROS1 (P08922 1945-2222): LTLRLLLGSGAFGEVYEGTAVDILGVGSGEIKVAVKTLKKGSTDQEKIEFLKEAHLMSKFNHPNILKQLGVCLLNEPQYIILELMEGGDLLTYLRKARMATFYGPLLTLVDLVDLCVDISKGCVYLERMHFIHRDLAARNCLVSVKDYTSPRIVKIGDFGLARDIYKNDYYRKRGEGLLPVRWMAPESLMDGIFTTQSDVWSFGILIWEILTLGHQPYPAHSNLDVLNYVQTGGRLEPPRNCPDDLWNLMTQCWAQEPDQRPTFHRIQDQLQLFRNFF
Chain of ROS1-G2032R (P08922 1945-2222 G2032R): as the sequence (P08922 1945-2222) above, with G88R counted along it
Chain of ALK I1171N/D1203N (Q9UM73 1116-1392 I1171N/D1203N): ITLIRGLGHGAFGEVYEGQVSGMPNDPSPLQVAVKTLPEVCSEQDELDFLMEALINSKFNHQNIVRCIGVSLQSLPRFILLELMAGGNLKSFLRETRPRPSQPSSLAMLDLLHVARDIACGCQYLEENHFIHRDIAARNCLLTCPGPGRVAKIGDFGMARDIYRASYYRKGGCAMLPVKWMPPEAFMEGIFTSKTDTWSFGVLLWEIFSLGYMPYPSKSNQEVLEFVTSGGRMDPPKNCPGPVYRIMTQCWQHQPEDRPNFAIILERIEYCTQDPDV
Chain of Ba/F3 EML4-ALK v1 I1171N (Q9UM73 other isoform, or with tags, fused parts or gaps I1171N): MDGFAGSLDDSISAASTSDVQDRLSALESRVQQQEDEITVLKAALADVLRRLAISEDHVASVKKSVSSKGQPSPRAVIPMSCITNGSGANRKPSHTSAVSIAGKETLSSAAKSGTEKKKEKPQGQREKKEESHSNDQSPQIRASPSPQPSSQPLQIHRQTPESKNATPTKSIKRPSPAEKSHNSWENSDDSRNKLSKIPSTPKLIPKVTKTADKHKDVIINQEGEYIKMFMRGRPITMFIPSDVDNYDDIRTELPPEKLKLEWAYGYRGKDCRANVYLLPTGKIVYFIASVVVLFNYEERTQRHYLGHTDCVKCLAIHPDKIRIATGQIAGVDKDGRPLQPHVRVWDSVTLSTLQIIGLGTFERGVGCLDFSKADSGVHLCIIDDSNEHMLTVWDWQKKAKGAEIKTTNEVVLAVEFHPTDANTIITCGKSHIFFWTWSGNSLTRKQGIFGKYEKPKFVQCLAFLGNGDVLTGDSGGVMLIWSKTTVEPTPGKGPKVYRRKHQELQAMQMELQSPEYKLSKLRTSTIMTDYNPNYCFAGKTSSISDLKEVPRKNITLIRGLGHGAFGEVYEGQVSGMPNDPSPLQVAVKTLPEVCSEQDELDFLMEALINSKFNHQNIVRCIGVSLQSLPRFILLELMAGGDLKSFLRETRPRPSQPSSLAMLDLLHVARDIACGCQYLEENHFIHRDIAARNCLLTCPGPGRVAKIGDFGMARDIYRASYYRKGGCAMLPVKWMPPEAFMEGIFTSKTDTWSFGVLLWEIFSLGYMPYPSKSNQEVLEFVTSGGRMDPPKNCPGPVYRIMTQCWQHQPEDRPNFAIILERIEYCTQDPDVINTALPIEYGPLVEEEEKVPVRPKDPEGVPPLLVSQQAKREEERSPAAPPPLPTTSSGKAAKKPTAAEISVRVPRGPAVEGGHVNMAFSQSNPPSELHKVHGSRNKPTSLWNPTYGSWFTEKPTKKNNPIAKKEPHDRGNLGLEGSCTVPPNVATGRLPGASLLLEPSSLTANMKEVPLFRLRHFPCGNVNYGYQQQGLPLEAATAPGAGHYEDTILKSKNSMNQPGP
Chain of Ba/F3 EML4-ALK v1 I1171N/D1203N (Q9UM73 other isoform, or with tags, fused parts or gaps I1171N/D1203N): as the sequence (Q9UM73 other isoform, or with tags, fused parts or gaps I1171N) above, with D642N counted along it
Chain of TRKB-wt (Q16620 538-807): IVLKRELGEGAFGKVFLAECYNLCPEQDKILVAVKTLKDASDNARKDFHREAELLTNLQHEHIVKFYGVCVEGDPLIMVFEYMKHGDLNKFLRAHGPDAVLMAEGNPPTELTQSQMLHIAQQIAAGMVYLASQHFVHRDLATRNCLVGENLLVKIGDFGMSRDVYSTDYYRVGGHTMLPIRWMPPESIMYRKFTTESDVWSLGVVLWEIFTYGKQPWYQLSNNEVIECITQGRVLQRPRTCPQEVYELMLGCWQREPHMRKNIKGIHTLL
Chain of Ba/F3 ETV6-TRKB (Q16620 32-822 limits assumed, change not shown): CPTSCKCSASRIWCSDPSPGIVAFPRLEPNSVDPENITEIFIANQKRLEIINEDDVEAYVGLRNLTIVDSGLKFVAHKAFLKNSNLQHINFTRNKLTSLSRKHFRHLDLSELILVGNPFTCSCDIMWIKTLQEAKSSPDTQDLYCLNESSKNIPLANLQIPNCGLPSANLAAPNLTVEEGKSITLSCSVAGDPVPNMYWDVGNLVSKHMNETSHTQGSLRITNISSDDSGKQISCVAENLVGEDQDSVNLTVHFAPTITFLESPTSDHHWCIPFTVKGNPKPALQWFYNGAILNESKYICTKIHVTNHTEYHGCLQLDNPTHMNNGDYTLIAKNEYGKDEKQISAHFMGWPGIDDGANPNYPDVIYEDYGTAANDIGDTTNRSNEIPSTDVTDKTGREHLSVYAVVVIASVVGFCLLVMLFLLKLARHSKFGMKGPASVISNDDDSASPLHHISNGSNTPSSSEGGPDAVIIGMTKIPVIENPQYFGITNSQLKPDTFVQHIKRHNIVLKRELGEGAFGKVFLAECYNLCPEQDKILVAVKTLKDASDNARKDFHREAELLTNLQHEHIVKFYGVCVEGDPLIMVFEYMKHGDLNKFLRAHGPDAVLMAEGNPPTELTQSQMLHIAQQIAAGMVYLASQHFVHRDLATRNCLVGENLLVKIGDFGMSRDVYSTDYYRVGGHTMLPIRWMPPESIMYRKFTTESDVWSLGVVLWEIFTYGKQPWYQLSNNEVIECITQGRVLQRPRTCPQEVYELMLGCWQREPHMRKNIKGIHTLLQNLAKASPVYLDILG

Broadly, the IC50 is the concentration needed to halve the response being measured. For the molecule `CCn1nc(C#N)c2c1-c1cnc(N)c(c1)O[C@H](C)c1cc(F)ccc1-c1nn(C)cc1C2` [Example 4, (R)-22-amino-3-ethyl-16-fluoro-10-methyl-19-methyl-20-oxa-3,4,10,11,23-pentaazapentacyclo[19.3.1.0^2,^6.0^8,^12.0^13,^18]pentacosa-1(24),2(6),4,8,11,13,15,17,21(25),22-decaene-5-carbonitrile], the Ki on ROS1 and at ROS1-G2032R was under 50 nM throughout. The IC50 was 50 to 500 nM at Ba/F3 ETV6-TRKB (setting [2]), over 500 nM in assay [1] and 50 to 500 nM on Ba/F3 EML4-ALK v1 I1171N. Further, in assay [1] (setting [3]), the “ETV6-TRKB / EML4-ALK v1 I1171N/D1203N” value is “D (bin D for low selectivity, ratio<1)”. Besides, on Ba/F3 EML4-ALK v1 I1171N, the “ETV6-TRKB / EML4-ALK v1 I1171N” value is “C (bin C for moderate selectivity, ratio≥1 but<10)”.

In the case of `CCn1nc(C(=O)N(C)C)c2c1-c1cnc(N)c(c1)O[C@H](C)c1cc(F)ccc1-c1nn(C)cc1C2` [Example 7, N,N-dimethyl-(R)-22-amino-3-ethyl-16-fluoro-10-methyl-19-methyl-20-oxa-3,4,10,11,23-pentaazapentacyclo[19.3.1.0^2,6.0^8,12.0^13,18]pentacosa-1(24),2(6),4,8,11,13,15,17.21(25),22-decaene-5-carboxamide], the Ki on ROS1, on ROS1-G2032R, at TRKB-wt and at ALK I1171N/D1203N was under 50 nM throughout. For the same molecule, the 50% inhibitory concentration (IC50) at Ba/F3 ETV6-TRKB (setting [2]) was in the range of 50 to 500 nM; in assay [1] it was 0.1 to 50 nM; against Ba/F3 EML4-ALK v1 I1171N, 0.1 to 50 nM. In addition, in assay [1] (setting [3]), the “ETV6-TRKB / EML4-ALK v1 I1171N/D1203N” value is listed as “C (bin C for moderate selectivity, ratio≥1 but<10)”. Further, at Ba/F3 EML4-ALK v1 I1171N, the “ETV6-TRKB / EML4-ALK v1 I1171N” value is reported as “B (bin B for high selectivity, ratio≥10-fold but<30)”.

`C[C@H]1Oc2cc(cnc2N)-c2c(c(C(=O)N(C)C)nn2CC2CC2)Cc2cn(C)nc2-c2ccc(F)cc21` [Example 8, N,N-dimethyl-(R)-22-amino-3-(cyclopropylmethyl)-16-fluoro-10-methyl-19-methyl-20-oxa-3,4,10,11,23-pentaazapentacyclo[19.3.1.0^2,^6.0^8,^12.0^13,^18]pentacosa-1(24),2(6),4,8,11,13,15, 17,21(25),22-decaene-5-carboxamide]: the Ki at ROS1 is under 50 nM; on ROS1-G2032R it was under 50 nM; at TRKB-wt it was 50 to 500 nM; on ALK I1171N/D1203N, under 50 nM. Further, the results for the 50% inhibitory concentration (IC50) (at Ba/F3 ETV6-TRKB (setting [2]); in assay [1]; at Ba/F3 EML4-ALK v1 I1171N) were over 500 nM, 0.1 to 50 nM and 0.1 to 50 nM, respectively. Besides, in assay [1] (setting [3]), the “ETV6-TRKB / EML4-ALK v1 I1171N/D1203N” value was “A (bin A for very high selectivity, ratio≥30-fold)”. Besides, the “ETV6-TRKB / EML4-ALK v1 I1171N” value on Ba/F3 EML4-ALK v1 I1171N is given as “A (bin A for very high selectivity, ratio≥30-fold)”.

`C[C@H]1Oc2cc(cnc2N)-c2c(c(C(=O)N3CCC3)nn2CC2CC2)Cc2cn(C)nc2-c2ccc(F)cc21` [Example 9, {(R)-22-amino-3-(cyclopropylmethyl)-16-fluoro-10-methyl-19-methyl-20-oxa-3,4,10,11,23-pentaazapentacyclo[19.3.1.0^2,^6.0^8,^12.0^13,^18]pentacosa-1(24),2(6),4,8,11,13,15,17,21(25),22-decaen-5-yl}(1-azetidinyl)methanone]: the Ki on ROS1 was under 50 nM; on ROS1-G2032R, under 50 nM; on TRKB-wt it was 50 to 500 nM; on ALK I1171N/D1203N, under 50 nM. The figures for the IC50 (at Ba/F3 ETV6-TRKB (setting [2]); in assay [1]) were over 500 nM and 50 to 500 nM, respectively. Also, in assay [1] (setting [3]), the “ETV6-TRKB / EML4-ALK v1 I1171N/D1203N” value is “B (bin B for high selectivity, ratio≥10-fold but<30)”.

As to `C[C@H]1Oc2cc(cnc2N)-c2c(C#N)nn(C(=O)N(C)C)c2Cc2cccnc2-c2ccc(F)cc21` [Example 27, N,N-dimethyl-(R)-23-amino-3-cyano-17-fluoro-20-methyl-21-oxa-4,5,12,24-tetraazapentacyclo[20.3.1.0^2,^6.0^8,^13.0^14,^19]hexacosa-1(25),2(6),3,8(13),9,11,14,16,18,22(26),23-undecaene-5-carboxamide], the Ki on ROS1, at ROS1-G2032R, on TRKB-wt and on ALK I1171N/D1203N was under 50 nM in each case. Further, the IC50 was 50 to 500 nM on Ba/F3 ETV6-TRKB (read-out: ETV6-TRKB IC50; Ba/F3 stable cells, 72 hours, CellTiter-Glo); 0.1 to 50 nM in assay [1]; 0.1 to 50 nM on Ba/F3 EML4-ALK v1 I1171N. The “ETV6-TRKB / EML4-ALK v1 I1171N/D1203N” value in assay [1] (setting [3]) was “A (bin A for very high selectivity, ratio≥30-fold)”. On Ba/F3 EML4-ALK v1 I1171N, the “ETV6-TRKB / EML4-ALK v1 I1171N” value is recorded as “A (bin A for very high selectivity, ratio≥30-fold)”.

Turning to `C[C@H]1Oc2cc(cnc2N)-c2c(nn(C)c2C#N)C(=O)c2cccnc2-c2ccc(F)cc21` [Example 49, (R)-23-amino-17-fluoro-4-methyl-20-methyl-7-oxo-21-oxa-4,5,12,24-tetraazapentacyclo[20.3.1.0^2,6.0^8,13.0^14,19]hexacosa-1(25),2,5,8(13),9,11.14,16,18,22(26),23-undecaene-3-carbonitrile], the Ki on ROS1 is under 50 nM; on ROS1-G2032R it was 50 to 500 nM; at TRKB-wt, 50 to 500 nM; on ALK I1171N/D1203N it was under 50 nM. Also, the IC50 on Ba/F3 ETV6-TRKB (setting [2]) lay within 50 to 500 nM; in assay [1] it was 0.1 to 50 nM; against Ba/F3 EML4-ALK v1 I1171N, 0.1 to 50 nM. Further, in assay [1] (setting [3]), the “ETV6-TRKB / EML4-ALK v1 I1171N/D1203N” value is “A (bin A for very high selectivity, ratio≥30-fold)”. Moreover, in assay [1] (TRKB selectivity, ratio of Ba/F3 IC50 values, Table 6 bins), the “Selectivity for Ba/F3 EML4-ALK v1 I1171N-D1203N IC50 over Ba/F3 ETV6-TRKB IC50” value is listed as “AA (bin AA for the selectivity with the ratio≥30-fold)”. Besides, the “ETV6-TRKB / EML4-ALK v1 I1171N” value at Ba/F3 EML4-ALK v1 I1171N is “A (bin A for very high selectivity, ratio≥30-fold)”.

For the molecule `Cc1nc2c(s1)Cc1c(c(C#N)nn1C(=O)N(C)C)-c1cnc(N)c(c1)O[C@H](C)c1cc(F)ccc1-2` [Example 58, N,N-dimethyl-(R)-22-amino-3-cyano-16-fluoro-10,19-dimethyl-20-oxa-9-thia-4,5,11,23-tetraazapentacyclo[19.3.1.0^2,^6.0^8,^12.0^13,^18]pentacosa-1(24),2(6),3,8(12),10,13,15,17,21(25),22-decaene-5-carboxamide], the Ki on ROS1 is under 50 nM; at ROS1-G2032R, under 50 nM; on TRKB-wt it was 50 to 500 nM; on ALK I1171N/D1203N, under 50 nM. Moreover, the IC50 was over 500 nM at Ba/F3 ETV6-TRKB (setting [2]), 50 to 500 nM in assay [1] and 0.1 to 50 nM at Ba/F3 EML4-ALK v1 I1171N. Besides, the “ETV6-TRKB / EML4-ALK v1 I1171N/D1203N” value in assay [1] (setting [3]) was “C (bin C for moderate selectivity, ratio≥1 but<10)”. Moreover, at Ba/F3 EML4-ALK v1 I1171N, the “ETV6-TRKB / EML4-ALK v1 I1171N” value is “A (bin A for very high selectivity, ratio≥30-fold)”.

The record behind these values is patent US20250326769A1, “HETEROAROMATIC MACROCYCLIC ETHER CHEMOTHERAPEUTIC AGENTS” (Nuvalent, Inc., priority 2022, published 2025).
